Tested on: MV-4-11 cells
Test: Gene expression microarray analysis (Affymetrix PrimeView) and GSEA
Type: cell-based, human
Parameters: RFU PODN (11730768_x_at) / Fold change /veh PODN (11730768_x_at) / RFU LINC00158 (11744669_a_at) / Fold change /veh LINC00158 (11744669_a_at) / RFU DUSP10 (11751237_a_at) / Fold change /veh DUSP10 (11751237_a_at) / RFU ID3 (11757404_x_at) / Fold change /veh ID3 (11757404_x_at) / RFU PLEKHG5 (11737974_s_at) / Fold change /veh PLEKHG5 (11737974_s_at) / RFU LRRC4B (11730491_at) / Fold change /veh LRRC4B (11730491_at) / RFU GIMAP4 (11747438_a_at) / Fold change /veh GIMAP4 (11747438_a_at) / RFU KRT8 (11758183_x_at) / Fold change /veh KRT8 (11758183_x_at) / RFU CNN1 (11734310_a_at) / Fold change /veh CNN1 (11734310_a_at) / RFU VPS37D (11726825_at) / Fold change /veh VPS37D (11726825_at) / RFU C10orf10 (11716522_x_at) / Fold change /veh C10orf10 (11716522_x_at) / RFU KIR2DL2 /// KIR2DL4 /// KIR2DL5A /// KIR2DL5B /// KIR2DS1 /// KIR2DS2 /// KIR2DS3 /// KIR2DS4 /// KIR3DL3 /// KIR3DL3 /// KIR3DS1 (11738374_at) / Fold change /veh KIR2DL2 /// KIR2DL4 /// KIR2DL5A /// KIR2DL5B /// KIR2DS1 /// KIR2DS2 /// KIR2DS3 /// KIR2DS4 /// KIR3DL3 /// KIR3DL3 /// KIR3DS1 (11738374_at) / RFU C1QL1 (11718748_at) / Fold change /veh C1QL1 (11718748_at) / RFU TMPRSS4 (11747572_a_at) / Fold change /veh TMPRSS4 (11747572_a_at) / RFU HAMP (11756126_x_at) / Fold change /veh HAMP (11756126_x_at) / RFU RNFT2 (11725882_a_at) / Fold change /veh RNFT2 (11725882_a_at) / RFU NR4A2 (11747474_a_at) / Fold change /veh NR4A2 (11747474_a_at) / RFU ABCC12 (11746883_a_at) / Fold change /veh ABCC12 (11746883_a_at) / RFU TMEM136 (11760407_x_at) / Fold change /veh TMEM136 (11760407_x_at) / RFU CLDN22 /// WWC2 (11732394_at) / Fold change /veh CLDN22 /// WWC2 (11732394_at) / RFU HLA-DPB1 (11760878_x_at) / Fold change /veh HLA-DPB1 (11760878_x_at) / RFU SPINT1 (11716480_a_at) / Fold change /veh SPINT1 (11716480_a_at) / RFU GAP43 (11754022_s_at) / Fold change /veh GAP43 (11754022_s_at) / RFU A4GNT (11735810_at) / Fold change /veh A4GNT (11735810_at) / RFU PRB3 (11715151_x_at) / Fold change /veh PRB3 (11715151_x_at) / RFU TUBB4B (11761932_at) / Fold change /veh TUBB4B (11761932_at) / RFU CAPN14 (11732068_a_at) / Fold change /veh CAPN14 (11732068_a_at) / RFU TMCC2 (11721928_a_at) / Fold change /veh TMCC2 (11721928_a_at) / RFU IRGQ (11745062_a_at) / Fold change /veh IRGQ (11745062_a_at) / RFU FAM174B (11720279_a_at) / Fold change /veh FAM174B (11720279_a_at) / RFU TMPRSS4 (11748680_a_at) / Fold change /veh TMPRSS4 (11748680_a_at) / RFU FAM212B (11763350_a_at) / Fold change /veh FAM212B (11763350_a_at) / RFU PLEKHG5 (11743358_a_at) / Fold change /veh PLEKHG5 (11743358_a_at) / RFU ZSCAN30 (11745921_a_at) / Fold change /veh ZSCAN30 (11745921_a_at) / RFU CMKLR1 (11741424_a_at) / Fold change /veh CMKLR1 (11741424_a_at) / RFU LOC101060620 /// MAPK8IP1 (11723275_at) / Fold change /veh LOC101060620 /// MAPK8IP1 (11723275_at) / RFU SPTSSB (11747773_x_at) / Fold change /veh SPTSSB (11747773_x_at) / RFU PRSS12 (11739890_at) / Fold change /veh PRSS12 (11739890_at) / RFU BIN1 (11741810_x_at) / Fold change /veh BIN1 (11741810_x_at) / RFU WNT11 (11732464_a_at) / Fold change /veh WNT11 (11732464_a_at) / RFU C10orf10 (11716521_a_at) / Fold change /veh C10orf10 (11716521_a_at) / RFU C5orf56 (11738089_at) / Fold change /veh C5orf56 (11738089_at) / RFU CYB561 (11721691_x_at) / Fold change /veh CYB561 (11721691_x_at) / RFU ANKRD19P (11752326_a_at) / Fold change /veh ANKRD19P (11752326_a_at) / RFU OR2T12 /// OR2T33 /// OR2T8 (11738714_s_at) / Fold change /veh OR2T12 /// OR2T33 /// OR2T8 (11738714_s_at) / RFU VCAN (11748164_a_at) / Fold change /veh VCAN (11748164_a_at) / RFU JSRP1 (11732532_at) / Fold change /veh JSRP1 (11732532_at) / RFU KRTAP10-11 (11738290_x_at) / Fold change /veh KRTAP10-11 (11738290_x_at) / RFU MYO3A (11730013_a_at) / Fold change /veh MYO3A (11730013_a_at) / RFU EBF3 (11725865_a_at) / Fold change /veh EBF3 (11725865_a_at) / RFU CAMK2N1 (11719241_x_at) / Fold change /veh CAMK2N1 (11719241_x_at) / RFU C5orf56 (11738088_a_at) / Fold change /veh C5orf56 (11738088_a_at) / RFU OLFML3 (11715873_a_at) / Fold change /veh OLFML3 (11715873_a_at) / RFU LOC100653217 /// NTM (11731650_a_at) / Fold change /veh LOC100653217 /// NTM (11731650_a_at) / RFU MAPK11 (11762145_a_at) / Fold change /veh MAPK11 (11762145_a_at) / RFU FIZ1 (11724087_x_at) / Fold change /veh FIZ1 (11724087_x_at) / RFU OASL (11726364_x_at) / Fold change /veh OASL (11726364_x_at) / RFU SOX15 (11748057_x_at) / Fold change /veh SOX15 (11748057_x_at) / RFU CD79A (11719716_a_at) / Fold change /veh CD79A (11719716_a_at) / RFU HIST1H1D (11736915_at) / Fold change /veh HIST1H1D (11736915_at) / RFU CASKIN2 (11723855_a_at) / Fold change /veh CASKIN2 (11723855_a_at) / RFU LOC730098 (11760151_x_at) / Fold change /veh LOC730098 (11760151_x_at) / RFU OR4N2 (11742367_at) / Fold change /veh OR4N2 (11742367_at) / RFU PRRT2 (11749266_a_at) / Fold change /veh PRRT2 (11749266_a_at) / RFU SNX32 (11753110_a_at) / Fold change /veh SNX32 (11753110_a_at) / RFU CDHR5 (11726645_a_at) / Fold change /veh CDHR5 (11726645_a_at) / RFU RCAN1 (11760418_a_at) / Fold change /veh RCAN1 (11760418_a_at) / RFU FAM167A (11723789_a_at) / Fold change /veh FAM167A (11723789_a_at) / RFU FAM26E (11764081_at) / Fold change /veh FAM26E (11764081_at) / RFU ISYNA1 (11749810_s_at) / Fold change /veh ISYNA1 (11749810_s_at) / RFU ACY1 (11761880_at) / Fold change /veh ACY1 (11761880_at) / RFU 11764098_at / Fold change /veh 11764098_at / RFU SAMD14 (11745864_x_at) / Fold change /veh SAMD14 (11745864_x_at) / RFU NPB (11741838_a_at) / Fold change /veh NPB (11741838_a_at) / RFU TMPRSS6 (11731388_a_at) / Fold change /veh TMPRSS6 (11731388_a_at) / RFU KRTAP10-2 (11738614_at) / Fold change /veh KRTAP10-2 (11738614_at) / RFU ARHGAP8 /// PRR5-ARHGAP8 (11727945_x_at) / Fold change /veh ARHGAP8 /// PRR5-ARHGAP8 (11727945_x_at) / RFU KRTAP5-7 /// NADSYN1 (11734609_at) / Fold change /veh KRTAP5-7 /// NADSYN1 (11734609_at) / RFU RASL12 (11751679_a_at) / Fold change /veh RASL12 (11751679_a_at) / RFU CDKN2B (11736163_a_at) / Fold change /veh CDKN2B (11736163_a_at) / RFU PRF1 (11729649_at) / Fold change /veh PRF1 (11729649_at) / RFU, ZNF638 /// ZNF638-IT1 / Fold change vs veh, ZNF638 /// ZNF638-IT1 / RFU, PANK3 / Fold change vs veh, PANK3 / RFU, SH3YL1 / Fold change vs veh, SH3YL1 / RFU, ZEB2 / Fold change vs veh, ZEB2 / RFU, NRIP1 / Fold change vs veh, NRIP1 / RFU, PTTG1IP / Fold change vs veh, PTTG1IP / RFU, CAPN2 / Fold change vs veh, CAPN2 / RFU, MED14 / Fold change vs veh, MED14 / RFU, SNORA58 / Fold change vs veh, SNORA58 / RFU, C1orf63 / Fold change vs veh, C1orf63 / RFU, LRRFIP1 / Fold change vs veh, LRRFIP1 / RFU, NDUFAF7 / Fold change vs veh, NDUFAF7 / RFU, SLC12A2 / Fold change vs veh, SLC12A2 / RFU, IBTK / Fold change vs veh, IBTK / RFU, ESF1 / Fold change vs veh, ESF1 / Fold change vs veh, TMEM50B / RFU, TAOK1 / Fold change vs veh, TAOK1 / RFU, ACBD3 / Fold change vs veh, ACBD3 / RFU, TMA16 / Fold change vs veh, TMA16 / RFU, RWDD3 / Fold change vs veh, RWDD3 / RFU, BCAT1 / Fold change vs veh, BCAT1 / RFU, EDEM3 / Fold change vs veh, EDEM3 / RFU, TMEM33 / Fold change vs veh, TMEM33 / RFU, WDR75 / Fold change vs veh, WDR75 / RFU, AHCTF1 / Fold change vs veh, AHCTF1 / RFU, TFRC / Fold change vs veh, TFRC / RFU, ZDHHC17 / Fold change vs veh, ZDHHC17 / RFU, NOM1 / Fold change vs veh, NOM1 / RFU, ARL8B / Fold change vs veh, ARL8B / RFU, ZBTB11 / Fold change vs veh, ZBTB11 / RFU, TAMM41 / Fold change vs veh, TAMM41 / RFU, KIAA1704 /// LOC100996395 / Fold change vs veh, KIAA1704 /// LOC100996395 / RFU, ING1 / Fold change vs veh, ING1 / RFU, TRMT61B / Fold change vs veh, TRMT61B / RFU, FUBP3 / Fold change vs veh, FUBP3 / RFU, TP53 / Fold change vs veh, TP53 / RFU, TNKS2 / Fold change vs veh, TNKS2 / RFU, ZFP14 / Fold change vs veh, ZFP14 / RFU, ACTR2 / Fold change vs veh, ACTR2 / RFU, PPP3R1 / Fold change vs veh, PPP3R1 / RFU, PIK3R1 / Fold change vs veh, PIK3R1 / RFU, HNRNPA1 / Fold change vs veh, HNRNPA1 / RFU, RNF170 / Fold change vs veh, RNF170 / RFU, ZNF28 / Fold change vs veh, ZNF28 / RFU, RNGTT / Fold change vs veh, RNGTT / RFU, OGT / Fold change vs veh, OGT / RFU, BRD1 / Fold change vs veh, BRD1 / RFU, MARS / Fold change vs veh, MARS / RFU, ZNF655 / Fold change vs veh, ZNF655 / RFU, FAHD1 / Fold change vs veh, FAHD1 / RFU, BDP1 / Fold change vs veh, BDP1 / RFU, LRRCC1 / Fold change vs veh, LRRCC1 / RFU, ARID1A / Fold change vs veh, ARID1A / RFU, ZNF146 / Fold change vs veh, ZNF146 / RFU, ZNF330 / Fold change vs veh, ZNF330 / RFU, GPN3 / Fold change vs veh, GPN3 / RFU, C9orf123 / Fold change vs veh, C9orf123 / RFU, N4BP2L2 / Fold change vs veh, N4BP2L2 / RFU, ARFIP1 / Fold change vs veh, ARFIP1 / RFU, FAM179B / Fold change vs veh, FAM179B / RFU, BCL10 / Fold change vs veh, BCL10 / RFU, UHRF1BP1L / Fold change vs veh, UHRF1BP1L / RFU, BET1 / Fold change vs veh, BET1 / RFU, CNOT2 / Fold change vs veh, CNOT2 / RFU, ZNF268 / Fold change vs veh, ZNF268 / Fold change vs veh, ZNF507 / RFU, DGCR2 / Fold change vs veh, DGCR2 / RFU, WDSUB1 / Fold change vs veh, WDSUB1 / Fold change vs veh, HSP90B1 /// MIR3652 / RFU, ADSS / Fold change vs veh, ADSS / RFU, GK / Fold change vs veh, GK / RFU, ZNF148 / Fold change vs veh, ZNF148 / RFU, TAF9 / Fold change vs veh, TAF9 / RFU, SLC1A5 / Fold change vs veh, SLC1A5 / RFU, SLMO2 / Fold change vs veh, SLMO2 / RFU, ABCC4 / Fold change vs veh, ABCC4 / RFU, LOC101060439 /// RAP1B / Fold change vs veh, LOC101060439 /// RAP1B / RFU, RFX7 / Fold change vs veh, RFX7 / RFU, GTPBP10 / Fold change vs veh, GTPBP10 / RFU, CNEP1R1 / Fold change vs veh, CNEP1R1 / RFU, BIVM-ERCC5 /// ERCC5 / Fold change vs veh, BIVM-ERCC5 /// ERCC5 / RFU, ILF3 / Fold change vs veh, ILF3 / RFU 11762660_at / Fold change /veh 11762660_at / RFU VCAN (11757783_s_at) / Fold change /veh VCAN (11757783_s_at) / RFU DDX43 (11728927_at) / Fold change /veh DDX43 (11728927_at) / RFU KRT8 (11758188_x_at) / Fold change /veh KRT8 (11758188_x_at) / RFU NKD1 (11759106_at) / Fold change /veh NKD1 (11759106_at) / RFU SRD5A1 (11742802_a_at) / Fold change /veh SRD5A1 (11742802_a_at) / RFU TPSAB1 /// TPSB2 (11721975_s_at) / Fold change /veh TPSAB1 /// TPSB2 (11721975_s_at) / RFU GSTM3 (11746129_a_at) / Fold change /veh GSTM3 (11746129_a_at) / RFU IL23R (11737362_x_at) / Fold change /veh IL23R (11737362_x_at) / RFU TMEM51 (11727254_a_at) / Fold change /veh TMEM51 (11727254_a_at) / RFU PIWIL2 (11732686_x_at) / Fold change /veh PIWIL2 (11732686_x_at) / RFU ORM1 (11744905_x_at) / Fold change /veh ORM1 (11744905_x_at) / RFU CCDC152 (11743942_at) / Fold change /veh CCDC152 (11743942_at) / RFU ECM1 (11717891_a_at) / Fold change /veh ECM1 (11717891_a_at) / RFU IL23R (11748794_a_at) / Fold change /veh IL23R (11748794_a_at) / RFU TNFAIP8L3 (11732012_x_at) / Fold change /veh TNFAIP8L3 (11732012_x_at) / RFU MBOAT4 (11741988_at) / Fold change /veh MBOAT4 (11741988_at) / RFU 11764193_at / Fold change /veh 11764193_at / RFU TMEM53 (11763286_at) / Fold change /veh TMEM53 (11763286_at) / RFU MAGEB2 (11727129_at) / Fold change /veh MAGEB2 (11727129_at) / RFU TMEM200A (11744735_a_at) / Fold change /veh TMEM200A (11744735_a_at) / RFU CCDC152 (11751479_a_at) / Fold change /veh CCDC152 (11751479_a_at) / RFU FAM211A (11726209_a_at) / Fold change /veh FAM211A (11726209_a_at) / RFU RGS16 (11746705_a_at) / Fold change /veh RGS16 (11746705_a_at) / RFU VCAN (11755009_s_at) / Fold change /veh VCAN (11755009_s_at) / RFU RHOB (11743442_s_at) / Fold change /veh RHOB (11743442_s_at) / RFU RGS16 (11720943_a_at) / Fold change /veh RGS16 (11720943_a_at) / RFU RGS16 (11720944_at) / Fold change /veh RGS16 (11720944_at) / RFU, VPS4B / Fold change vs veh, VPS4B / RFU, CREB1 / Fold change vs veh, CREB1 / RFU, DNAJC13 / Fold change vs veh, DNAJC13 / RFU, GNAQ / Fold change vs veh, GNAQ / RFU, CDK5R1 / Fold change vs veh, CDK5R1 / RFU, ZRANB3 / Fold change vs veh, ZRANB3 / RFU, CUL4A / Fold change vs veh, CUL4A / RFU, CCNY / Fold change vs veh, CCNY / RFU, UFL1 / Fold change vs veh, UFL1 / RFU, COG3 / Fold change vs veh, COG3 / RFU, DIAPH2 / Fold change vs veh, DIAPH2 / RFU, SKA2 / Fold change vs veh, SKA2 / RFU, AFF3 / Fold change vs veh, AFF3 / RFU, LMF1 / Fold change vs veh, LMF1 / RFU, IPO11 / Fold change vs veh, IPO11 / RFU, DFFB / Fold change vs veh, DFFB / RFU, FOXP1 / Fold change vs veh, FOXP1 / RFU, CARD8 / Fold change vs veh, CARD8 / RFU, STRN3 / Fold change vs veh, STRN3 / RFU, ADK / Fold change vs veh, ADK / RFU, RASSF2 / Fold change vs veh, RASSF2 / RFU, WIPF1 / Fold change vs veh, WIPF1 / RFU, LARP1B / Fold change vs veh, LARP1B / RFU, RASA1 / Fold change vs veh, RASA1 / RFU, RB1 / Fold change vs veh, RB1 / RFU, PPFIA1 / Fold change vs veh, PPFIA1 / RFU, MAT2A / Fold change vs veh, MAT2A / RFU, CCT5 / Fold change vs veh, CCT5 / RFU, WDR92 / Fold change vs veh, WDR92 / RFU, CUX1 / Fold change vs veh, CUX1 / RFU, TTC7A / Fold change vs veh, TTC7A / RFU, TMEM135 / Fold change vs veh, TMEM135 / RFU, DEPTOR / Fold change vs veh, DEPTOR / RFU, CPM / Fold change vs veh, CPM / RFU, DNAJB6 / Fold change vs veh, DNAJB6 / RFU, CACNA2D3 / Fold change vs veh, CACNA2D3 / RFU, DTX4 / Fold change vs veh, DTX4 / RFU, TFCP2 / Fold change vs veh, TFCP2 / RFU, GMCL1 /// GMCL1P1 / Fold change vs veh, GMCL1 /// GMCL1P1 / RFU, AEBP2 / Fold change vs veh, AEBP2 / RFU, SNHG1 /// SNORD22 /// SNORD25 /// SNORD26 /// SNORD27 /// SNORD28 /// SNORD29 /// SNORD31 / Fold change vs veh, SNHG1 /// SNORD22 /// SNORD25 /// SNORD26 /// SNORD27 /// SNORD28 /// SNORD29 /// SNORD31 / Fold change (Aza/veh), C12orf56 (ProbeSet 11735607_a_at) / Fold change (ACY-1035/veh), C12orf56 (ProbeSet 11735607_a_at) / Fold change (Aza/veh), FGFR1OP (ProbeSet 11751329_s_at) / Fold change (ACY-1035/veh), FGFR1OP (ProbeSet 11751329_s_at) / Fold change (Aza/veh), VPS36 (ProbeSet 11739960_a_at) / Fold change (ACY-1035/veh), VPS36 (ProbeSet 11739960_a_at) / RFU SYPL1 (11715823_x_at) / Fold change /veh SYPL1 (11715823_x_at) / RFU IGFBP7 (11715501_s_at) / Fold change /veh IGFBP7 (11715501_s_at) / RFU REEP3 (11722064_at) / Fold change /veh REEP3 (11722064_at) / RFU IGLL1 (11728026_x_at) / Fold change /veh IGLL1 (11728026_x_at): dose or concentration left out as unconfirmed
Details: ProbeSet 11733108_at; LIST D

SMILES: Nc1ncn([C@@H]2O[C@H](CO)[C@@H](O)[C@H]2O)c(=O)n1 [azacitidine]
- RFU, GNAQ: 233.19 RFU
